Structures are written as SMILES.

The first assay has as its system HCV 1b genotype. Description: HCV replicon assay (HCV-neo replicon cells, wild-type). In kind it is cell-based, Hepatitis C virus. To be noted: HCV 1b genotype replicon; class symbols; read-out: EC50 Range against HCV 1b. Put shortly:
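HCV-neo replicon cells (wild-type) and replicon cells carrying NS5A resistance substitutions were treated with compounds; assay per O'Boyle et al. 2005, with luciferase-reporter read-out variants also used.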
On the technique in general: Replicon systems follow genome replication, usually without infectious particles.
Consider `CC(C)(C)O[C@@H]1C[C@@H](C(=O)Nc2ccc(-c3cnc(-c4ccc(NC(=O)[C@@H]5C[C@@H](OC(C)(C)C)CN5C(=O)Cc5ccccn5)cc4)o3)cc2)N(C(=O)Cc2ccccn2)C1` [XY-75, (2S,4R,2′S,4′R)-N,N′-(1,3-oxazole-2,5-diyldi-4,1-phenylene)bis(4-tert-butoxy-1-(2-pyridinylacetyl)-2-pyrrolidinecarboxamide)], for which the half-maximal effective concentration (EC50) – broadly, the midpoint of the concentration-response curve – was in the range of 0.00457 to 0.099 µM.

The same assay, now with this note: Hepatitis C virus, HCV 1b genotype replicon; class symbols; read-out: EC50 Range against HCV 1b.
For the compound `CC(C)(C)O[C@@H]1C[C@@H](C(=O)Nc2ccc(-c3cnc(-c4ccc(NC(=O)[C@@H]5C[C@@H](OC(C)(C)C)CN5C(=O)C5CCC5)cc4)o3)cc2)N(C(=O)C2CCC2)C1` [XY-64, (2S,4R,2′S,4′R)-N,N′-(1,3-oxazole-2,5-diyldi-4,1-phenylene)bis(4-tert-butoxy-1-(cyclobutylcarbonyl)-2-pyrrolidinecarboxamide)], the EC50 lay in the range of 1 to 10 µM.
Regarding `CCc1ccccc1C(=O)N1C[C@H](OC(C)(C)C)C[C@H]1C(=O)Nc1ccc(-c2cnc(-c3ccc(NC(=O)[C@@H]4C[C@@H](OC(C)(C)C)CN4C(=O)c4ccccc4CC)cc3)o2)cc1` [XY-65, (2S,4R,2′S,4′R)-N,N′-(1,3-oxazole-2,5-diyldi-4,1-phenylene)bis(4-tert-butoxy-1-(2-ethylbenzoyl)-2-pyrrolidinecarboxamide)], the EC50 lay within 1 to 10 µM.
Same read-out and setting: next, `CC(C)(C)O[C@@H]1C[C@@H](C(=O)Nc2ccc(-c3cnc(-c4ccc(NC(=O)[C@@H]5C[C@@H](OC(C)(C)C)CN5C(=O)C5CCCCC5)cc4)o3)cc2)N(C(=O)C2CCCCC2)C1` [XY-66, (2S,4R,2′S,4′R)-N,N′-(1,3-oxazole-2,5-diyldi-4,1-phenylene)bis(4-tert-butoxy-1-(cyclohexylcarbonyl)-2-pyrrolidinecarboxamide)]: 1 to 10 µM.
Take `COC(C(=O)N1C[C@H](OC(C)(C)C)C[C@H]1C(=O)Nc1ccc(-c2cnc(-c3ccc(NC(=O)[C@@H]4C[C@@H](OC(C)(C)C)CN4C(=O)C(OC)c4ccccc4)cc3)o2)cc1)c1ccccc1` (stereo partly drawn) [XY-67, (2S,4R,2′S,4′R)-N,N′-(1,3-oxazole-2,5-diyldi-4,1-phenylene)bis(4-tert-butoxy-1-(methoxy(phenyl)acetyl)-2-pyrrolidinecarboxamide)]: the EC50 lay in the range of 0.00457 to 0.099 µM.
For the compound `CC(C)(C)O[C@@H]1C[C@@H](C(=O)Nc2ccc(-c3cnc(-c4ccc(NC(=O)[C@@H]5C[C@@H](OC(C)(C)C)CN5C(=O)[C@H]5CCCO5)cc4)o3)cc2)N(C(=O)[C@H]2CCCO2)C1` [XY-68, (2S,4R,2′S,4′R)-N,N′-(1,3-oxazole-2,5-diyldi-4,1-phenylene)bis(4-tert-butoxy-1-((2R)-tetrahydro-2-furanylcarbonyl)-2-pyrrolidinecarboxamide)], the EC50 lay within 0.1 to 0.999 µM.
For the compound `Cc1cccc(CC(=O)N2C[C@H](OC(C)(C)C)C[C@H]2C(=O)Nc2ccc(-c3cnc(-c4ccc(NC(=O)[C@@H]5C[C@@H](OC(C)(C)C)CN5C(=O)Cc5cccc(C)c5)cc4)o3)cc2)c1` [XY-69, (2S,4R,2′S,4′R)-N,N′-(1,3-oxazole-2,5-diyldi-4,1-phenylene)bis(4-tert-butoxy-1-((3-methylphenyl)acetyl)-2-pyrrolidinecarboxamide)], the EC50 lay within 0.1 to 0.999 µM.
The same measure, in the same setting: next, `Cc1cc(CC(=O)N2C[C@H](OC(C)(C)C)C[C@H]2C(=O)Nc2ccc(-c3cnc(-c4ccc(NC(=O)[C@@H]5C[C@@H](OC(C)(C)C)CN5C(=O)Cc5cc(C)no5)cc4)o3)cc2)on1` [XY-70, (2S,4R,2′S,4′R)-N,N′-(1,3-oxazole-2,5-diyldi-4,1-phenylene)bis(4-tert-butoxy-1-((3-methyl-5-isoxazolyl)acetyl)-2-pyrrolidinecarboxamide)]: 0.00457 to 0.099 µM.
For the compound `Cn1cccc1C(=O)N1C[C@H](OC(C)(C)C)C[C@H]1C(=O)Nc1ccc(-c2cnc(-c3ccc(NC(=O)[C@@H]4C[C@@H](OC(C)(C)C)CN4C(=O)c4cccn4C)cc3)o2)cc1` [XY-71, (2S,4R,2′S,4′R)-N,N′-(1,3-oxazole-2,5-diyldi-4,1-phenylene)bis(4-tert-butoxy-1-((1-methyl-1H-pyrrol-2-yl)carbonyl)-2-pyrrolidinecarboxamide)], the concentration for a half-maximal effect (EC50) was 1 to 10 µM.
Take `Cc1noc(C)c1C(=O)N1C[C@H](OC(C)(C)C)C[C@H]1C(=O)Nc1ccc(-c2cnc(-c3ccc(NC(=O)[C@@H]4C[C@@H](OC(C)(C)C)CN4C(=O)c4c(C)noc4C)cc3)o2)cc1` [XY-72, (2S,4R,2′S,4′R)-N,N′-(1,3-oxazole-2,5-diyldi-4,1-phenylene)bis(4-tert-butoxy-1-((3,5-dimethyl-4-isoxazolyl)carbonyl)-2-pyrrolidinecarboxamide)]: the EC50 was in the range of 0.1 to 0.999 µM.
Still for that read-out and setting: for `CC(C)(C)O[C@@H]1C[C@@H](C(=O)Nc2ccc(-c3cnc(-c4ccc(NC(=O)[C@@H]5C[C@@H](OC(C)(C)C)CN5C(=O)c5ccccc5)cc4)o3)cc2)N(C(=O)c2ccccc2)C1` [XY-73, (2S,4R,2′S,4′R)-N,N′-(1,3-oxazole-2,5-diyldi-4,1-phenylene)bis(1-benzoyl-4-tert-butoxy-2-pyrrolidinecarboxamide)] the value was 1 to 10 µM; for `CC(C)(C)O[C@@H]1C[C@@H](C(=O)Nc2ccc(-c3cnc(-c4ccc(NC(=O)[C@@H]5C[C@@H](OC(C)(C)C)CN5C(=O)C5CC5)cc4)o3)cc2)N(C(=O)C2CC2)C1` [XY-74, (2S,4R,2′S,4′R)-N,N′-(1,3-oxazole-2,5-diyldi-4,1-phenylene)bis(4-tert-butoxy-1-(cyclopropylcarbonyl)-2-pyrrolidinecarboxamide)], 0.1 to 0.999 µM; for `CC(C)(C)O[C@@H]1C[C@@H](C(=O)Nc2ccc(-c3cnc(-c4ccc(NC(=O)[C@@H]5C[C@@H](OC(C)(C)C)CN5C(=O)c5cccs5)cc4)o3)cc2)N(C(=O)c2cccs2)C1` [XY-76, (2S,4R,2′S,4′R)-N,N′-(1,3-oxazole-2,5-diyldi-4,1-phenylene)bis(4-tert-butoxy-1-(2-thienylcarbonyl)-2-pyrrolidinecarboxamide)], 1 to 10 µM.
`COc1cccc(CC(=O)N2C[C@H](OC(C)(C)C)C[C@H]2C(=O)Nc2ccc(-c3cnc(-c4ccc(NC(=O)[C@@H]5C[C@@H](OC(C)(C)C)CN5C(=O)Cc5cccc(OC)c5)cc4)o3)cc2)c1` [XY-77, (2S,4R,2′S,4′R)-N,N′-(1,3-oxazole-2,5-diyldi-4,1-phenylene)bis(4-tert-butoxy-1-((3-methoxyphenyl)acetyl)-2-pyrrolidinecarboxamide)]: the EC50 lay within 0.1 to 0.999 µM.

The values above are taken from patent US8735398B2 (Bristol-Myers Squibb Company, priority 2009, dated 2014).
